Experiments:
Assay type in all cases: biochemical
AtcTPI = molecular target: T1, AtcTPI (Arabidopsis thaliana, UniProt P48491); experiment: residual activity after […] h incubation with reagent, coupled assay; conditions: read-out: concentration giving 50% of original activity
T1 construct: gene CTIMC; cytosolic isoform, purified dimer; expression not described here

SyTPI [1] = molecular target: T2, SyTPI (Synechocystis sp. PCC 6803, UniProt Q59994); experiment: as above; conditions: read-out: % activity at 0.5 mM
T2 construct: gene tpiA; full length, codon-optimised, E. coli BL21(DE3) delta-tpi; His tag cut by PreScission, extra Gly-Pro-His before Met1; homodimer 54 kDa
T2 sequence (Q59994 whole entry): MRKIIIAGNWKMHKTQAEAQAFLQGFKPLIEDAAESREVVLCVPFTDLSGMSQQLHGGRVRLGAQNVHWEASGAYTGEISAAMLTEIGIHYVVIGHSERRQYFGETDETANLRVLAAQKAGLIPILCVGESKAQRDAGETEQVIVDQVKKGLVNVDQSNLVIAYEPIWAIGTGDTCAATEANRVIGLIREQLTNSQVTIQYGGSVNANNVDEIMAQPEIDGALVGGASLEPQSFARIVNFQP

AtpdTPI = molecular target: T3, AtpdTPI (Arabidopsis thaliana, UniProt Q9SKP6); experiment: as above; conditions: read-out: concentration giving 50% of original activity
T3 construct: gene TIM; expression not described here
T3 sequence (Q9SKP6 60-315 limits assumed): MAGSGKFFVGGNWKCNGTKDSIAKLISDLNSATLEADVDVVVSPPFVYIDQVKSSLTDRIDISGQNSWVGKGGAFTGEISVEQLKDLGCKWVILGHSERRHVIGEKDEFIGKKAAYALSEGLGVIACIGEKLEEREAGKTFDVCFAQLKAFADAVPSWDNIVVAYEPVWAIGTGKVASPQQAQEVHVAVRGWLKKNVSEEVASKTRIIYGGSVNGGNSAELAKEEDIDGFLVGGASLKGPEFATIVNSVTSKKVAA

HsTPI [2] = molecular target: T4, HsTPI (Homo sapiens, UniProt P60174); experiment: residual activity after […] min incubation, coupled assay
T4 construct: gene TPI1; source and expression not described; dimer
T4 sequence (P60174 2-249): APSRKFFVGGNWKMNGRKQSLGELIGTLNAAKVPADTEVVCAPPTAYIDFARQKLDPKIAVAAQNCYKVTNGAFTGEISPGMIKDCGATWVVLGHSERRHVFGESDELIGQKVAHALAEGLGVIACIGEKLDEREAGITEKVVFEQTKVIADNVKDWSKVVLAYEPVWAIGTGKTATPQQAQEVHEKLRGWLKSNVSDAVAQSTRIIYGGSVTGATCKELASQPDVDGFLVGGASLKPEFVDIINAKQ

SyTPI [3] = molecular target: T2, SyTPI; experiment: as above
HsTPI [4] = molecular target: T5, HsTPI (Homo sapiens, UniProt P60174, L109T/S106T/V102Y); experiment: activity with / without ornidazole after […] h
T5 construct: gene TPI1; source and expression not described; dimer
T5 sequence (P60174 2-249 V102Y/S106T/L109T): as the sequence (P60174 2-249) above, with V101Y, S105T, L108T counted along it

T1 sequence (P48491 whole entry, canonical isoform): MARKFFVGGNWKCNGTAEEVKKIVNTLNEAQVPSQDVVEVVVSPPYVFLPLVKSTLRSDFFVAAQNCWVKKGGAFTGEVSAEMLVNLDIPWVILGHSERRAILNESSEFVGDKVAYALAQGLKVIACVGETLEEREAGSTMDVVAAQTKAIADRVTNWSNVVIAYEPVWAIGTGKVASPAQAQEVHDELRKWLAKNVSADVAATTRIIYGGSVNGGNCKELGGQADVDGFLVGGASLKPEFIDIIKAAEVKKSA

Compound	IC50 (AtcTPI)	activity at 500 µM (SyTPI [1])	IC50 (AtpdTPI)	activity at 50 µM (HsTPI [2])	inhibition at 50 µM (SyTPI [3])	activity at 50 µM (HsTPI [4])
CSS(C)(=O)=O [S-methyl methanethiosulfonate]	0.005 µM	50%	18 µM			
Cc1ncc([N+](=O)[O-])n1CC(O)CCl (stereo not drawn) [ornidazole]				90%	~80%	~60%

Source: PMC6277545, “Structural Basis for the Limited Response to Oxidative and Thiol-Conjugating Agents by Triosephosphate Isomerase From the Photosynthetic Bacteria Synechocystis” (Frontiers in Molecular Biosciences, 2018)
